Measurements taken from patent publication US20200339953A1, “HEMATOPOIETIC STEM AND PROGENITOR CELL THERAPY” (priority 2010, published 2020).

Tests used:
[1] = tested on: Human umbilical cord blood cells; Lin(−)CD34^+ cells isolated after treatment; experiment: Gene expression arrays after treatment of whole cord blood; type: cell-based
Procedure: Further experiments were performed to determine if CD34^+ cells responded to 16,16-dimethyl PGE2 when cells were treated in the context of a whole cord blood clinical treatment protocol. Human umbilical cord blood cells were incubated for 120 minutes at 37° C. with vehicle or 10 μM 16,16-dimethyl PGE2 (See FIGS. 17A-17D). After the incubation, Lin(−) CD34^+ cells were isolated using Miltenyi magnetic sorting. Biotin-labeled aRNA was prepared from the cells, and gene expression profiles were analyzed. […]
These experiments were repeated using human whole cord blood cells to determine if the CD34^+ expression results can be translated to the clinical setting. […] After the incubation, Lin(−)CD34^+ cells were isolated, labeled aRNA was prepared from the cells, and gene expression profiles were analyzed. […]
After treatment, the cells were washed with LMD/5% HSA medium, centrifuged for 10 minutes at 650× g at room temperature and resuspended in a cold selection buffer (phosphate buffered saline (PBS) with no Ca^+ or Mg^+; 2 mM EDTA; and 0.5% HSA). […] Once the Lin-CD34^+ cells were isolated from the treated whole cord blood, an aliquot was analyzed by flow cytometry to assess purity. […]

[2] = tested on: Murine whole bone marrow (WBM) cells; experiment: Colony forming Unit Spleen at day 12 (CFU-S12) assay; type: in vivo, C57Bl/6 mice; details: 10 μM; for CFU-S12 number: WBM
Procedure: Colony forming Unit Spleen at day 12 (CFU-S12) assays were performed as described in North et al., Nature. 2007 Jun. 21; 447(7147):1007-11. […] After treatment, the cells were washed by centrifugation and resuspended in PBS for tail-vein injection into C57Bl/6 recipients (2×5/treatment) that had been previously lethally irradiated at 10.5Gy. 50,000 cells were injected per recipient. […]

[3] = tested on: Whole cord blood cells or CD34^+ cells; experiment: Cell viability assay (7-AAD staining); type: cell-based, human
Procedure: Whole cord blood cells or CD34^+ cells obtained from Stem Cell Technologies (Vancouver, Canada) were aliquoted equally in Eppendorf tubes and treated ex vivo at a range of 16,16-dimethyl PGE2 concentrations (10 μM to 100 μM) or DMSO control; temperatures (4° C., 22° C., or 37° C.) for 60 or 120 minutes in LMD/5% HSA media. After treatment, an aliquot of the incubated cells were assayed using 7-Amino-Actinomycin D (7-AAD) staining as an indicator of cell death. One million whole cord blood were stained with 5 μL of 7AAD staining solution (BD Bioscience, San Jose, Calif.), or 200,000 CD34^+ cord blood cells were stained with 1 μL 7-AAD solution. Cells were analyzed on a Guava EasyCyte 8HT System (Millipore) and with the FlowJo software package (Tree Star Inc., Ashland, Oreg.). A separate aliquot of the same cells were also taken for assessment of proliferation potential using CFU-C assays (discussed below in Example 4).

[4] = tested on: CXCR4 cell-surface protein on CD34^+ cord blood cells; experiment: CXCR4 surface expression analysis by flow cytometry; type: cell-based, human; details: 10 μM; for CD34+ cord blood cells with detectable CXCR4 expression: 2 hours at 37° C.
Procedure: CD34^+ cord blood cells were treated with 10 μM 16,16-dimethyl PGE2 or DMSO in StemSpan media for 2 hours at 37° C. or for 1 hour at 4° C. After treatment, the cells were washed in StemSpan media, centrifuged for 10 minutes at 300× g and resuspended in StemSpan media containing cytokines (e.g., CC100) to promote CD34^+ cell survival and incubated at 37° C. for 1, 6 and 24 hours. After the 1, 6 or 24 hour incubation, cells were centrifuged and resuspended in staining media containing the Lineage cocktail, 1-FITC, […], CXCR4(CD184)-PE, and incubated on ice for 15 minutes. Fresh staining media was then added to the cells, and the cells were centrifuged at 300 g for 10 minutes, twice. The stained cells were acquired on a Guava EasyCyte 8HT and analysis was performed using FloJo Software Package (Treestar).
CXCR4 cell-surface expression is important for stem cell homing to the bone marrow hematopoietic niche. […] Cells were treated for 2 hours at 37 or for 1 hour at 4° C. with either 10 μM 16,16-dimethyl PGE2 or DMSO control in StemSpan media. CXCR4 cell-surface protein expression was assessed 1, 6 and 24 hours after the end of treatment by flow cytometry.

CCCCC(C)(C)[C@H](O)/C=C/[C@H]1[C@H](O)CC(=O)[C@@H]1C/C=C\CCCC(=O)O [16,16-dimethyl PGE2]
response of whole cord blood (more than 99% Lineage+ cells) ([1]; 10 μM, 37° C., 2 hours, FIGS. 17A-17D): did not respond to 16,16-dimethyl PGE2 in a similar manner | concentration giving the maximal gene expression signature ([1]; whole cord blood treated 120 minutes at 37° C., Lin(−)CD34+ cells isolated): 10 µM | number of hematopoietic progenitor cells (FIG. 19A) ([2]; 37° C. incubation): increases the number of hematopoietic progenitor cells | CFU-S12 number ([2]; 4° C. for 1 hour): 8.5±1.3 colonies | CFU-S12 number ([2]; 37° C. for 1 hour): 11.2±1.5 | CFU-S number compared to DMSO treated cells ([2]; murine bone marrow, 4° C. treatment): small increase in CFU-S number | cell viability (FIG. 10) ([3]; CD34+ cells, 10 μM, 120 minutes, 37° C. vs vehicle or 4° C.): does not decrease cell viability | cell viability (7-AAD) ([3]; whole cord blood cells or CD34+ cells, high temperatures, relatively long incubation periods vs other conditions): did not decrease cell viability | CXCR4 expression after treatment at 4° C. ([4]; 4° C.): did not result in an increase in CXCR4 expression | CD34+ cord blood cells with detectable CXCR4 expression ([4]; 1 hour after treatment): 48% | CD34+ cord blood cells with detectable CXCR4 expression ([4]; 6 hours post-treatment): 34.7% | level of CXCR4 compared to DMSO treated cells ([4]; 24 hours post-treatment): substantially the same
